Measured values published in patent US7678820B2, “Hetero compound” (Astellas Pharma Inc., priority 2006, dated 2010).
Counter-ions that a name gives are not always drawn.

The molecules below were run against T1, human S1P1 (Homo sapiens, UniProt P21453) (assay: GTP[γ-35S] bond assay using the membrane of a human S1P1 expressing cell (S1P1 agonist activity)). Conditions: membrane of human S1P1 expressing CHO cell; concentration causing 50% of the maximum GTP[γ-35S] reaction.
T1 construct: expressed in transfected cells; membrane fraction used
T1 sequence (P21453 whole entry): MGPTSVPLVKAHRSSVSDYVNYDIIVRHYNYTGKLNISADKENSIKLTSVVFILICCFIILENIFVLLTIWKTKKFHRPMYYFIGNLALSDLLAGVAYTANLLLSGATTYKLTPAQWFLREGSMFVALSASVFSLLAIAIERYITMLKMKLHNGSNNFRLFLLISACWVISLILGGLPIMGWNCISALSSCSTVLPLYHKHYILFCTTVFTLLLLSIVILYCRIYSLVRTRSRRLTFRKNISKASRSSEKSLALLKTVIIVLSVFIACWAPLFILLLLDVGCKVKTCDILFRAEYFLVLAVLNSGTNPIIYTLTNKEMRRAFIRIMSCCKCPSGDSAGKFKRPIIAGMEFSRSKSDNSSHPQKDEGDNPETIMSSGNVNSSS
Type: biochemical
Experimental: 1) Evaluation of a Receptor Agonist Activity by a GTP[γ-^35S] Bond Assay Using the Membrane of a Human S1P1 Expressing Cell
The in vitro S1P1 agonist activity of the compound of the present invention was evaluated by the increase in the functional bonding activity into the G-Protein of a GTP[γ-^35S] using the membrane of a human S1P1 expressing cell. A cDNA encoding a human S1P1 was cloned from a human colorectal cDNA library, and introduced to an expression vector pcDNA3.1 to construct a S1P1-pcDNA3.1. Then, by Lipofectamine 2000 (GIBCO), the S1P1-pcDNA3.1 was transfected into a CHO cell, and cultured in a Ham's F-12 culture medium containing 10% fetal bovine serum, 100 U/mL Penicillin, 100 μg/mL Streptomycin, and 1 mg/mL G418 disulfate, to obtain a stable, G418-resistant strain. The cultured human S1P1 expressing cells were isolated in a 1 mM EDTA/2Na-containing PBS, and disrupted under ice-cooling by a homogenizer made of glass in a 1 mM Tris HCl (pH 7.4) buffer solution containing 0.1 mM EDTA and a […]. It was centrifuged at […], and a supernatant was further centrifuged at 4° C. for 60 min at 100,000×g, and suspended in a 10 mM Tris HCl (pH 7.4) buffer solution containing 1 mM EDTA. The obtained membrane (0.13 mg/mL) and […] GTP[γ-^35S] […] The FilterMate was dried at 50° C. for 60 min, and Microscinti-o (Packard) was added thereto for measurement by a liquids scintillation counter for a microplate (Packard, TOP count). For evaluation of the human S1P1 agonist activity of the compound of the present invention and the comparative compound, the percentages with the rate of a maximum reaction to make the GTP[γ-^35S] bonds saturated in the presence of the compound being set at 100%, and the rate of the reaction of the GTP[γ-^35S] bonds in the absence of the compound being set at 0% was used, a non-linear regression curve was plotted, and a concentration to cause an agonist activity operating 50% of the maximum reaction was defined as an EC50 value (nM).

| Structure (SMILES) | EC50 |
| --- | --- |
| FC(F)COc1ccc(-c2nc(-c3ccc4[nH]cnc4c3)no2)cc1C(F)(F)F [Example 110] | 6.2 nM |
| Cc1cc(-c2nc(-c3cccc4c3ccn4CC(=O)NCCO)no2)ccc1O[C@@H](C)C(F)(F)F [Example 193] | 6.8 nM |
| CC(Oc1ccc(-c2nc(-c3ccc4[nH]c(CCS(C)(=O)=O)nc4c3)no2)cc1C(F)(F)F)C(F)(F)F (centres unmarked) [Example 23, 2-[2-(methylsulfonyl)ethyl]-5-{5-[3-(trifluoromethyl)-4-(2,2,2-trifluoro-1-methylethoxy)phenyl]-1,2,4-oxadiazol-3-yl}-1H-benzimidazole hydrochloride] | 6.8 nM |
| Cc1nc2cc(-c3noc(-c4ccc(OC(C)C(F)(F)F)c(C(F)(F)F)c4)n3)ccc2[nH]1 (centres unmarked) [Example 2, 2-methyl-5-{5-[3-(trifluoromethyl)-4-(2,2,2-trifluoro-1-methylethoxy)phenyl]-1,2,4-oxadiazol-3-yl}-1H-benzimidazole hydrochloride] | 13 nM |
| CC(Oc1ccc(-c2nc(-c3cccc4c3ccn4C)no2)cc1C(F)(F)F)C(F)(F)F (centres unmarked) [Example 151] | 11 nM |
| CC(Oc1ccc(-c2nc(-c3ccc4nc[nH]c4c3)no2)cc1Br)C(F)(F)F (centres unmarked) [Example 64] | 5.7 nM |
| CC(Oc1ccc(-c2nc(-c3ccc4[nH]cnc4c3)no2)cc1C(F)(F)F)C(F)(F)F (centres unmarked) [Example 48] | 6.5 nM |
| NC(=O)Cn1ccc2c(-c3noc(-c4ccc(C5CCCC5)c(C(F)(F)F)c4)n3)cccc21 [Example 81] | 5.9 nM |
| FC(F)(F)c1cc(-c2nc(-c3ccc4nc[nH]c4c3)no2)ccc1Oc1ccccc1 [Example 121] | 12 nM |
| CC(C)Oc1ccc(-c2nc(-c3cccc4c3ccn4CC(N)=O)no2)cc1C(F)(F)F [Example 5, 2-(4-{5-[4-isopropoxy-3-(trifluoromethyl)phenyl]-1,2,4-oxadiazol-3-yl}-1H-indol-1-yl)acetamide] | 5.5 nM |
| CC(Oc1ccc(-c2nc(-c3ccc4[nH]cnc4c3)no2)cc1Cl)C(F)(F)F (centres unmarked) [Example 53] | 5.8 nM |
| CC(Oc1ccc(-c2nc(-c3cccc4c3CCN4C)no2)cc1C(F)(F)F)C(F)(F)F (centres unmarked) [Example 152] | 7.6 nM |
| CC(Oc1ccc(-c2nc(-c3ccc4[nH]c(N)nc4c3)no2)cc1C(F)(F)F)C(F)(F)F (centres unmarked) [Example 51] | 13 nM |
| Cc1c(-c2noc(-c3ccc(OC(C)C(F)(F)F)c(C(F)(F)F)c3)n2)ccc2[nH]cnc12 (centres unmarked) [Example 37] | 5.4 nM |
| C=CCOc1ccc(-c2nc(-c3ccc4[nH]cnc4c3)no2)cc1C(F)(F)F [Example 106] | 8.7 nM |

Continued, values first:

| EC50 | Structure (SMILES) |
| --- | --- |
| 2.3 nM | CC(Oc1ccc(-c2nc(-c3ccc4nc[nH]c4c3)no2)cc1C#N)C(F)(F)F (centres unmarked) [Example 54] |
| 3.6 nM | C[C@@H](Oc1ccc(-c2nc(-c3ccc4[nH]cnc4c3)no2)cc1Cl)C(F)(F)F [Example 200] |
| 4.2 nM | COCC(=O)n1ccc2c(-c3noc(-c4ccc(OC(C)C(F)(F)F)c(C(F)(F)F)c4)n3)cccc21 (centres unmarked) [Example 182] |
| 4.6 nM | C[C@@H](Oc1ccc(-c2nc(-c3ccc4[nH]cnc4c3)no2)cc1C(F)(F)F)C(F)(F)F [Example 120] |
| 1.8 nM | NC(=O)Cn1ccc2c(-c3noc(-c4ccc(OC(CF)CF)c(C(F)(F)F)c4)n3)cccc21 [Example 158] |
| 4.7 nM | C[C@H](Oc1ccc(-c2nc(-c3cccc4c3ccn4CC(N)=O)no2)cc1C(F)(F)F)C(F)(F)F [Example 12, 2-[4-(5-{3-(trifluoromethyl)-4-[(1S)-2,2,2-trifluoro-1-methylethoxy]phenyl}-oxadiazol-3-yl)-1H-indol-1-yl]acetamide] |
| 1.9 nM | CC(Oc1ccc(-c2nc(-c3cccc4c3ccn4CC(N)=O)no2)cc1C#N)C(F)(F)F (centres unmarked) [Example 163] |
| 4.3 nM | C[C@H](Oc1ccc(-c2nc(-c3ccc4[nH]cnc4c3)no2)cc1C(F)(F)F)C(F)(F)F.Cl [Ex 119] |
| 5.4 nM | CC(C)Oc1ccc(-c2nc(-c3cccc4c3ccn4CC(N)=O)no2)cc1Cl [Example 8] |
| 2.8 nM | CC(Oc1ccc(-c2nc(-c3cccc4c3ccn4CC(N)=O)no2)cc1Cl)C(F)(F)F (centres unmarked) [Example 164] |
| 3.8 nM | CC(Oc1ccc(-c2nc(-c3cccc4nccn34)no2)cc1C(F)(F)F)C(F)(F)F (centres unmarked) [Example 59] |
| 4.7 nM | CC(Oc1ccc(-c2nc(-c3cccc4c3CCN4)no2)cc1C(F)(F)F)C(F)(F)F (centres unmarked) [Example 26, 4-{5-[3-(trifluoromethyl)-4-(2,2,2-trifluoro-1-methylethoxy)phenyl]-1,2,4-oxadiazol-3-yl}indoline] |
| 2 nM | C[C@H](Oc1ccc(-c2nc(-c3cccc4c3ccn4CC(=O)NCCO)no2)cc1C(F)(F)F)C(F)(F)F [Example 194] |
| 2.1 nM | CC(=O)N1CCc2c(-c3noc(-c4ccc(OC(C)C(F)(F)F)c(C(F)(F)F)c4)n3)cccc21 (centres unmarked) [Example 15, 1-acetyl-4-{5-[3-(trifluoromethyl)-4-(2,2,2-trifluoro-1-methylethoxy)phenyl]-1,2,4-oxadiazol-3-yl}indoline] |
| 3.3 nM | O=C(Cn1ccc2c(-c3noc(-c4ccc(OC(CF)CF)c(Cl)c4)n3)cccc21)NCCO [Example 197] |
| 5.3 nM | CC(C)Oc1ccc(-c2nc(-c3cccc4c3ccn4CC(=O)NCCO)no2)cc1C(F)(F)F [Example 196] |
| 3.7 nM | CC(Oc1ccc(-c2nc(-c3cccc4[nH]ccc34)no2)cc1C(F)(F)F)C(F)(F)F (centres unmarked) [Example 67] |
| 3.2 nM | Cc1cc(-c2nc(-c3cccc4c3ccn4CC(N)=O)no2)ccc1O[C@@H](C)C(F)(F)F [Example 147] |
| 5.4 nM | NC(=O)Cn1ccc2c(-c3noc(-c4cnc(OC(CF)CF)c(Cl)c4)n3)cccc21 [Example 143] |
| 4 nM | CC(Oc1ccc(-c2nc(-c3ccc4cn[nH]c4c3)no2)cc1C(F)(F)F)C(F)(F)F (centres unmarked) [Example 65] |
| 1.2 nM | NC(=O)Cn1ccc2c(-c3noc(-c4ccc(OC(CF)CF)c(Cl)c4)n3)cccc21 [Example 6, 2-[4-(5-{3-chloro-4-[2-fluoro-1-(fluoromethyl)ethoxy]phenyl}-1,2,4-oxadiazol-3-yl)-1H-indol-1-yl]acetamide] |
| 4.3 nM | C[C@H](Oc1ncc(-c2nc(-c3cccc4c3ccn4CC(N)=O)no2)cc1Cl)C(F)(F)F [Example 173] |
| 5 nM | C[C@H](Oc1ccc(-c2nc(-c3ccc4[nH]cnc4c3)no2)cc1Cl)C(F)(F)F.Cl [Ex 199] |
| 4.7 nM | CC(Oc1ccc(-c2nc(-c3cccc4c3ccn4CC(N)=O)no2)cc1C(F)(F)F)C(F)(F)F (centres unmarked) [Example 181] |
| 3.7 nM | CC(Oc1ccc(-c2nc(-c3ccc4nc[nH]c4c3)no2)cc1C(F)F)C(F)(F)F (centres unmarked) [Example 87] |
| 2.1 nM | CC(Oc1ccc(-c2nc(-c3ccnc4[nH]ccc34)no2)cc1C(F)(F)F)C(F)(F)F (centres unmarked) [Example 60] |

Each molecule was assayed on number of the lymphocytes in peripheral blood (assay: Evaluation of peripheral blood lymphopenia in rat). Conditions: Rattus norvegicus, Lymphocyte, po, 24 h, read-out: ED50 value after 24 hours.
Type: in vivo
Experimental: 2) Evaluation of Peripheral Blood Lymphopenia in Rat
The peripheral blood lymphopenia in rat was measured at 24 hours after oral administration in the following manner. Six- to ten-week-old male Lewis rats (Japan Charles river laboratories) were randomly divided into the groups (n=3), and the compound of the present invention was suspended in 0.5% methyl cellulose-containing distilled water, and orally administered with a sonde. At 24 hours after administration, under ether anesthesia, 0.2 ml of blood was collected from ocular fundus. To the blood sample were immediately added EDTA/4K and heparin to prevent clotting, and the number of the lymphocytes in blood was measured with an automatic haematology analyzer (Sysmex Corp.; XT-2000i). For the reduction of the number of the lymphocytes in peripheral blood by the compound of the present invention, the percentage with the number of the lymphocytes in groups administered with 0.5% methyl cellulose-containing distilled water being set at 100%, as performed at the same time was used, and the dose to cause 50% reduction of the number of the lymphocytes in peripheral blood by administration of the compound of the present invention was defined an ED50 value (mg/kg).

| Structure (SMILES) | ED50 |
| --- | --- |
| CC(Oc1ccc(-c2nc(-c3cccnc3N)no2)cc1C(F)(F)F)C(F)(F)F (centres unmarked) [Comparative Compound 2] | 8.8 mg/kg |

Same assay, conditions: Rattus norvegicus, Lymphocyte; male Lewis rats, oral administration, 50% reduction of the number of lymphocytes in peripheral blood at 24 hours after administration; read-out: ED50 value after 24 hours

| Structure (SMILES) | ED50 |
| --- | --- |
| CNc1ncccc1-c1noc(-c2ccc(OC(C)C(F)(F)F)c(Cl)c2)n1.Cl (centres unmarked) [Comparative Compound 5] | > 10 mg/kg |
| C[C@H](Oc1ccc(-c2nc(-c3ccc4[nH]cnc4c3)no2)cc1C(F)(F)F)C(F)(F)F.Cl [Ex 119] | 0.071 mg/kg |
| Cc1ccc(Cl)cc1-c1noc(-c2ccc(OC(C)C(F)(F)F)c(C(F)(F)F)c2)n1 (centres unmarked) [Comparative Compound 3] | 3.7 mg/kg |
| CNc1ncccc1-c1noc(-c2ccc(O[C@@H](C)C(F)(F)F)c(Cl)c2)n1.Cl [Comparative Compound 4] | > 10 mg/kg |
| CNc1ncccc1-c1noc(-c2ccc(OC(C)C(F)(F)F)c(C(F)(F)F)c2)n1 (centres unmarked) [Comparative Compound 1] | 1.4 mg/kg |
| C[C@H](Oc1ccc(-c2nc(-c3ccc4[nH]cnc4c3)no2)cc1Cl)C(F)(F)F.Cl [Ex 199] | 0.26 mg/kg |

Same assay, conditions: rat peripheral blood lymphopenia, 24 hours after oral administration

| Structure (SMILES) | ED50 value after 24 hours, conclusion in words (persistence) |
| --- | --- |
| C[C@H](Oc1ccc(-c2nc(-c3ccc4[nH]cnc4c3)no2)cc1C(F)(F)F)C(F)(F)F.Cl [Ex 119] | high ED50 value even after 24 hours, indicating persistence |
| C[C@H](Oc1ccc(-c2nc(-c3ccc4[nH]cnc4c3)no2)cc1Cl)C(F)(F)F.Cl [Ex 199] | high ED50 value even after 24 hours, indicating persistence |
